Calls of active or inactive are those of the source. How the calls were made is not given here.
System: S. cerevisiae tim10-1 mutant yeast, luminescence growth read-out
Test: tim10-1 mutant strain growth inhibitors – luminescence, S. cerevisiae, counter-screen for tim23-1 inhibitor project, SAR follow-up (AID 602378)

In the case of Cc1nc2scc(C)n2c(=O)c1S(=O)(=O)Nc1ccc(N2CCN(S(C)(=O)=O)CC2)cc1, the IC50 is reported as > 99 µM (inactive).

In the case of Cc1ccc2nc(N3C(=O)CNC3=S)sc2c1, the IC50 is reported as 13 µM.

In the case of N/C(=N\OC(=O)c1ccc2ccccc2c1)c1ccc(I)cc1, the IC50 is reported as > 99 µM (inactive).

With Cc1nc2scc(C)n2c(=O)c1S(=O)(=O)Nc1ccc(N2CCN(C(=O)C(C)C)CC2)cc1 the IC50 was > 99 µM (inactive).

N#C/C(=C\c1ccc(Cl)cc1)C(=O)Nc1cccnc1 was tested, and the IC50 was 25.6 µM.

Work on Cc1ccc(-c2nn(-c3ccccc3)cc2NC(=O)CCl)cc1 yielded an IC50 of 1.88 µM.

With Cc1csc(NC(=O)c2sc3nc4c(cc3c2N)CN(C)CC4)n1 the IC50 was > 99 µM (inactive).

For CCOc1cc2ccccc2cc1C(=O)O/N=C(\N)c1ccc(Cl)cc1, the IC50 was 1.61 µM.

Cc1ccc(Nc2nc(-c3cccnc3)nc3ccccc23)cc1 showed an IC50 of 14.1 µM.

With Cc1c2c(n(Cc3ccco3)c1C)N=CN1CCS(=O)(=O)N=C21 the IC50 was > 99 µM (inactive).

For CS(=O)(=O)Nc1ccc(/C(N)=N/OC(=O)c2ccccc2Cl)cc1, the IC50 was > 99 µM (inactive).

In the case of N/C(=N\OC(=O)c1ccccc1)c1ccc(F)cc1F, the IC50 is reported as 6.71 µM.

CC(=O)c1ccc(NS(=O)(=O)c2c(C)nc3scc(C)n3c2=O)cc1 was tested, and the IC50 was > 99 µM (inactive).

Work on CC(C)(C)c1csc(NC(=O)c2ccc(Cl)s2)n1 yielded an IC50 of 54.7 µM.

In the case of O=C(N/N=C/C(Cl)=C\c1ccccc1)c1cccs1, the IC50 is reported as 42.7 µM.

For Cc1ccc2nc(CSc3ccc(S(=O)(=O)N4CCCC4)cn3)cc(=O)n2c1, the IC50 was > 99 µM (inactive).

O=C(Nc1ccc2nc(-c3ccc(Br)o3)[nH]c2c1)c1cccs1 was tested, and the IC50 was 24.6 µM.

O=C(CSc1cccc[n+]1[O-])Nc1ccccc1Oc1ccccc1 was tested, and the IC50 was 0.949 µM.

Cc1nc2scc(C)n2c(=O)c1S(=O)(=O)Nc1ccccc1 showed an IC50 of 66.9 µM.

With NC(=O)C1CCN(c2nc(-c3cccnc3)nc3ccccc23)CC1 the IC50 was > 99 µM (inactive).

For O=C(Nc1ccn[nH]1)c1cccc(OCc2cccnc2)c1, the IC50 was > 99 µM (inactive).

N/C(=N\OC(=O)c1ccc(Cl)cc1)c1cccc(CS(=O)(=O)c2ccccn2)c1 showed an IC50 of 14 µM.

CCN(C(=O)c1cccc2ncccc12)c1c(N)n(Cc2ccccc2)c(=O)[nH]c1=O was tested, and the IC50 was > 99 µM (inactive).

For Cc1nc2scc(C)n2c(=O)c1S(=O)(=O)Nc1ccc(N2CCOCC2)cc1, the IC50 was > 99 µM (inactive).

Work on CCCN(C(=O)c1ccc([N+](=O)[O-])c(C)c1)c1c(N)n(Cc2ccccc2)c(=O)[nH]c1=O yielded an IC50 of 1.08 µM.

Cc1ccc(OCC(=O)O/N=C(\N)Cc2ccc(Cl)cc2)cc1 gave an IC50 of 2.57 µM.

CC(C)Cn1cnc2c(c(-c3ccccc3)c(-c3ccccc3)n2Cc2ccco2)c1=N showed an IC50 of 16.8 µM.

With CCOc1ccc2nc(N3C(=O)CNC3=S)sc2c1 the IC50 was > 99 µM (inactive).

O=C(Nc1ccc(-c2cn3ccccc3n2)cc1)c1cccs1 was tested, and the IC50 was > 99 µM (inactive).

Work on COc1cc2c(cc1OC)/C(=C/c1ccc(Cl)cc1)C(=O)OC2 yielded an IC50 of 10.8 µM.

With N/C(=N\OC(=O)c1ccc(Cl)cc1)c1ccc(Cl)cc1 the IC50 was 1.1 µM.

For C=C1CCc2c([nH]c3ccc(OCC(C)C)cc23)C1=O, the IC50 was > 99 µM (inactive).

COc1ccc(Cl)cc1NS(=O)(=O)c1c(C)nc2scc(C)n2c1=O was tested, and the IC50 was > 99 µM (inactive).

Oc1ccc(Oc2ccc(Oc3ccc(O)cc3)cc2)cc1 was tested, and the IC50 was 25.6 µM.

For CN1CCc2nc3sc(C(=O)C45CC6CC(CC(C6)C4)C5)c(N)c3cc2C1, the IC50 was 69.3 µM.

For N/C(Cc1cccc2ccccc12)=N\OC(=O)COc1ccc(Cl)cc1Cl, the IC50 was 27.9 µM.

Compound CCCCOc1ccc(C(=O)O/N=C(\N)c2cccc(Br)c2)cc1 has an IC50 of 1.09 µM.

Nc1cccc(Oc2ccc(Oc3cccc(N)c3)cc2)c1 was tested, and the IC50 was > 99 µM (inactive).

With Cc1nc2scc(C)n2c(=O)c1S(=O)(=O)Nc1cccc(O)c1 the IC50 was > 99 µM (inactive).

With Cc1nn(Cc2cccc(C(=O)O/N=C(\N)c3ccc(Cl)cc3)c2)c(C)c1Br the IC50 was 1.51 µM.

In the case of Cc1nc2scc(C)n2c(=O)c1S(=O)(=O)Nc1ccc(OC(F)(F)F)cc1, the IC50 is reported as 26.5 µM.

CC1(C)C=Cc2cc(/C(N)=N/OC(=O)c3ccccc3)ccc2O1 was tested, and the IC50 was 0.66 µM.

Compound O=C(Nc1nc2ccccc2s1)C1CCCN1S(=O)(=O)c1ccc(Cl)cc1 (stereo not given) has an IC50 of 13.1 µM.

Cc1cc(OCC(=O)O/N=C(\N)Cc2ccc(Cl)cc2)ccc1Br gave an IC50 of 3.28 µM.

O=c1cc(CSc2ccc(S(=O)(=O)N3CCOCC3)cn2)nc2ccc(Br)cn12 was tested, and the IC50 was 77.4 µM.

CCOc1ccc(NS(=O)(=O)c2c(C)nc3scc(C)n3c2=O)cc1 was tested, and the IC50 was > 99 µM (inactive).

With O=C(CSCc1ccccc1)Nc1cc(S(=O)(=O)N2CCOCC2)ccc1Oc1ccccc1 the IC50 was > 99 µM (inactive).

Cc1nc2scc(C)n2c(=O)c1S(=O)(=O)Nc1ccc(N2CCOCC2)c(Cl)c1 was tested, and the IC50 was > 99 µM (inactive).

Compound N/C(=N\OC(=O)c1cccc2ccccc12)c1ccc(Cl)cc1 has an IC50 of 1.03 µM.

With Cc1noc(C)c1S(=O)(=O)Nc1ccc(-c2cn3c(n2)SCC3)cc1 the IC50 was > 99 µM (inactive).

In the case of Cc1nc2scc(C)n2c(=O)c1S(=O)(=O)Nc1ccc(Oc2ccc(Cl)cc2)cc1, the IC50 is reported as > 99 µM (inactive).

With O=c1cc(CSc2ccc(S(=O)(=O)N3CCCCC3)cn2)nc2ccc(Br)cn12 the IC50 was > 99 µM (inactive).

Compound O=C1OC(c2ccccc2)=N/C1=C\C=C\c1ccco1 has an IC50 of 3.62 µM.

N#Cc1c(-c2ccccc2)cc(-c2ccc(O)cc2)nc1N showed an IC50 of 10.3 µM.

Cc1ccc2nc(CS(=O)(=O)c3ncccc3Cl)cc(=O)n2c1 was tested, and the IC50 was > 99 µM (inactive).

For Cc1ccc(/C(N)=N/OC(=O)c2ccccc2)cc1F, the IC50 was 1.12 µM.

With Cc1ccc(-c2nc3ccc(NC(=O)c4cccs4)cc3[nH]2)o1 the IC50 was 16.4 µM.

With COc1ccc(/C=C/C(=O)Nc2ccc3c(c2)CCC3)cc1OC the IC50 was 17.5 µM.

In the case of Cc1nc2scc(C)n2c(=O)c1S(=O)(=O)Nc1cc(C(F)(F)F)ccc1Cl, the IC50 is reported as > 99 µM (inactive).

For CC(=O)c1ccc2[nH]c3c(c2c1)CCCC3=O, the IC50 was > 99 µM (inactive).
